Experimental data taken from patent publication US20250171437A1 (Agios Pharmaceuticals,Inc., priority 2022, published 2025).

Molecular target: T1, human PAH with the R408W mutation (A375 R408W cells) (Homo sapiens, UniProt P00439, R408W)
T1 construct: expressed in transfected cells
T1 sequence (P00439 1-452 R408W): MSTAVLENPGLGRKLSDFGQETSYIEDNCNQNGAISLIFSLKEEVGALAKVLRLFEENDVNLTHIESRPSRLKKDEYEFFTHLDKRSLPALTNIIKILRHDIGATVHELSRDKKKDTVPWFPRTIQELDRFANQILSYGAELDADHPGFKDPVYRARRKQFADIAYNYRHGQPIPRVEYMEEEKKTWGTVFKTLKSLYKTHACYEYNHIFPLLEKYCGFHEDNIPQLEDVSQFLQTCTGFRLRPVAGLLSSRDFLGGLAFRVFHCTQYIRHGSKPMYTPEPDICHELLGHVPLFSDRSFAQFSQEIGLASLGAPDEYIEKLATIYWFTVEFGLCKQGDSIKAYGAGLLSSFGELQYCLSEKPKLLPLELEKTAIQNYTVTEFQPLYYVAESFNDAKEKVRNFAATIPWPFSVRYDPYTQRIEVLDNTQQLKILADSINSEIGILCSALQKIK
Assay: Cell Based Phenylalanine Flux Assay
Conditions: 24 hrs with compound, then 20 μM sepiapterin and 800 μM 13C9,15N-Phenylalanine for 4 hours, 13C-Tyrosine by LC-MS, average where tested multiple times
Outline: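 AC50 is derived from LC-MS of 13C-tyrosine in the media after a 4 h pulse of 800 μM 13C9,15N-phenylalanine plus 20 μM sepiapterin. The A375 R408W PAH cells had received duplicate 10-point, 2-fold compound dilutions (0.5% DMSO) for 24 h beforehand.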

[1] = A375 cells expressing R408W PAH

Row | AC50 (A375 R408W cells) [µM] | SMILES | AC50 [1] [µM]
1 |  | CNC(C)(C)c1nc(C)c(C(=O)N2CCc3[nH]cnc3C2c2nc3cc(F)ccc3o2)o1 (single isomer, unassigned) [4R enantiomer of (2-{5-[4-(5-fluoro-1,3-benzoxazol-2-yl)-1H,] | ≥ 5
2 |  | CC(C)(C)OC(=O)N1CCN(c2ccc3c(C(=O)N4CCc5[nH]cnc5C4c4nc5cc(F)ccc5o4)cnn3c2)CC1 (single isomer, unassigned) [4R enantiomer of tert-butyl 4-{3-[4-(5-fluoro-1,3-benzoxazol] | ≥ 5
3 |  | NCCc1ccc2c(C(=O)N3CCc4[nH]cnc4C3c3nc4cc(F)ccc4o3)cnn2c1 (single isomer, unassigned) [4S enantiomer of 2-{3-[4-(5-fluoro-1,3-benzoxazol-2-yl)-1H,4] | ≥ 5
4 |  | CN(C)CCNc1ccc2c(C(=O)N3CCc4[nH]cnc4C3c3nc4cc(F)ccc4o3)cnn2c1 (single isomer, unassigned) [4S enantiomer of N-[2-(dimethylamino)ethyl]-3-[4-(5-fluoro-1] | ≥ 5
5 | ≤ 0.5 | CC(C)(O)c1nc(C(F)F)c(C(=O)N2CCc3[nH]cnc3[C@H]2c2nc3cc(F)ccc3o2)o1 (single isomer, unassigned) [Example 107] | 
6 | 1 to 5 | CC(C)(O)c1nc(C(F)F)c(C(=O)N2CCc3[nH]cnc3[C@@H]2c2nc3cc(F)ccc3o2)o1 (single isomer, unassigned) [Example 108] | 
7 | 1 to 5 | CC(O)c1nc(Br)c(C(=O)N2CCc3[nH]cnc3[C@@H]2c2nc3cc(F)ccc3o2)o1 (single isomer, unassigned) [Example 223] | 
8 | 1 to 5 | CC(O)c1nc(Br)c(C(=O)N2CCc3[nH]cnc3[C@@H]2c2nc3cc(F)ccc3o2)o1 (single isomer, unassigned) [Example 224] | 
9 | 1 to 5 | CC(O)c1nc(Br)c(C(=O)N2CCc3[nH]cnc3[C@H]2c2nc3cc(F)ccc3o2)o1 (single isomer, unassigned) [Example 225] | 
10 | ≤ 0.5 | CC(O)c1nc(Br)c(C(=O)N2CCc3[nH]cnc3[C@H]2c2nc3cc(F)ccc3o2)o1 (single isomer, unassigned) [Example 226] | 
11 | 1 to 5 | CC(O)c1nc(Cl)c(C(=O)N2CCc3[nH]cnc3[C@@H]2c2nc3cc(F)ccc3o2)o1 (single isomer, unassigned) [Example 233] | 
12 | 1 to 5 | CC(O)c1nc(Cl)c(C(=O)N2CCc3[nH]cnc3[C@@H]2c2nc3cc(F)ccc3o2)o1 (single isomer, unassigned) [Example 234] | 
13 | 1 to 5 | CC(O)c1nc(Cl)c(C(=O)N2CCc3[nH]cnc3[C@H]2c2nc3cc(F)ccc3o2)o1 (single isomer, unassigned) [Example 235] | 
14 | 0.5 to 1 | CC(O)c1nc(Cl)c(C(=O)N2CCc3[nH]cnc3[C@H]2c2nc3cc(F)ccc3o2)o1 (single isomer, unassigned) [Example 236] | 
15 | ≤ 0.5 | CC1CN(C(=O)c2ocnc2C(F)F)[C@H](c2nc3cccc(F)c3o2)c2nc[nH]c21 (single isomer, unassigned) [Example 803] | 
16 | ≤ 0.5 | CC1CN(C(=O)c2ocnc2C(F)F)[C@H](c2nc3cccc(F)c3o2)c2nc[nH]c21 (single isomer, unassigned) [Example 804] | 

Row | AC50 (A375 R408W cells) [µM] | SMILES | AC50 [1] [µM]
17 | 1 to 5 | CC1CN(C(=O)c2ocnc2C(F)F)[C@@H](c2nc3cccc(F)c3o2)c2nc[nH]c21 (single isomer, unassigned) [Example 805] | 
18 | 1 to 5 | CC1CN(C(=O)c2ocnc2C(F)F)[C@@H](c2nc3cccc(F)c3o2)c2nc[nH]c21 (single isomer, unassigned) [Example 806] | 
19 | ≥ 5 | O=C(c1cnco1)N1Cc2[nH]cnc2[C@H]1c1nc2ccccc2o1 (single isomer, unassigned) [Example 925] | 
20 | 1 to 5 | c1ccc2oc([C@@H]3c4nc[nH]c4CN3c3nc4ccccc4o3)nc2c1 (single isomer, unassigned) [Example 931] | 
21 | 1 to 5 | c1ccc2oc([C@H]3c4nc[nH]c4CN3c3nc4ccccc4o3)nc2c1 (single isomer, unassigned) [Example 932] | 
22 | 0.5 to 1 | Cc1ccc2oc([C@@H]3c4nc[nH]c4CCN3C(=O)c3ncc(Cl)s3)nc2c1 [Example 1, (S)-(5-chlorothiazol-2-yl)(4-(5-methylbenzo[d]oxazol-2-yl)-6,7-dihydro-1H-imidazo[4,5-c]pyridin-5(4H)-yl)methanone] | 
23 | ≥ 5 | Cc1ccc2oc([C@H]3c4nc[nH]c4CCN3C(=O)c3ncc(Cl)s3)nc2c1 [Example 2, (R)-(5-chlorothiazol-2-yl)(4-(5-methylbenzo[d]oxazol-2-yl)-6,7-dihydro-1H-imidazo[4,5-c]pyridin-5(4H)-yl)methanone] | 
24 | ≤ 0.5 | O=C(CC1CC1)N1CCc2[nH]cnc2[C@H]1c1nc2ccc(Br)cc2o1 [Example 3, (S)-1-(4-(6-bromobenzo[d]oxazol-2-yl)-6,7-dihydro-1H-imidazo[4,5-c]pyridin-5(4H)-yl)-2-cyclopropylethanone] | 
25 | ≥ 5 | O=C(CC1CC1)N1CCc2[nH]cnc2[C@@H]1c1nc2ccc(Br)cc2o1 [Example 4, (R)-1-(4-(6-bromobenzo[d]oxazol-2-yl)-6,7-dihydro-1H-imidazo[4,5-c]pyridin-5(4H)-yl)-2-cyclopropylethanone] | 
26 | ≤ 0.5 | O=C(c1cnc(-c2ccccn2)s1)N1CCc2[nH]cnc2[C@H]1c1nc2cc(F)ccc2o1 [Example 5, (S)-(4-(5-fluorobenzo[d]oxazol-2-yl)-6,7-dihydro-1H-imidazo[4,5-c]pyridin-5(4H)-yl)(2-(pyridin-2-yl)thiazol-5-yl)methanone] | 
27 | 1 to 5 | O=C(c1cnc(-c2ccccn2)s1)N1CCc2[nH]cnc2[C@@H]1c1nc2cc(F)ccc2o1 [Example 6, (R)-(4-(5-fluorobenzo[d]oxazol-2-yl)-6,7-dihydro-1H-imidazo[4,5-c]pyridin-5(4H)-yl)(2-(pyridin-2-yl)thiazol-5-yl)methanone] | 
28 | 0.5 to 1 | O=C(c1cnc(-c2ccccn2)o1)N1CCc2[nH]cnc2[C@H]1c1nc2ccc(Br)cc2o1 [Example 7, (S)-(4-(6-bromobenzo[d]oxazol-2-yl)-6,7-dihydro-1H-imidazo[4,5-c]pyridin-5(4H)-yl)(2-(pyridin-2-yl)oxazol-5-yl)methanone] | 
29 | 1 to 5 | O=C(c1cnc(-c2ccccn2)o1)N1CCc2[nH]cnc2[C@@H]1c1nc2ccc(Br)cc2o1 [Example 8, (R)-(4-(6-bromobenzo[d]oxazol-2-yl)-6,7-dihydro-1H-imidazo[4,5-c]pyridin-5(4H)-yl)(2-(pyridin-2-yl)oxazol-5-yl)methanone] | 
30 | ≤ 0.5 | Cn1cc(-c2ncc(C(=O)N3CCc4[nH]cnc4[C@H]3c3nc4cc(F)ccc4o3)s2)cn1 [Example 9, (S)-(4-(5-fluorobenzo[d]oxazol-2-yl)-6,7-dihydro-1H-imidazo[4,5-c]pyridin-5(4H)-yl)(2-(1-methyl-1H-pyrazol-4-yl)thiazol-5-yl)methanone] | 
31 | 1 to 5 | Cn1cc(-c2ncc(C(=O)N3CCc4[nH]cnc4[C@@H]3c3nc4cc(F)ccc4o3)s2)cn1 [Example 10, (R)-(4-(5-fluorobenzo[d]oxazol-2-yl)-6,7-dihydro-1H-imidazo[4,5-c]pyridin-5(4H)-yl)(2-(1-methyl-1H-pyrazol-4-yl)thiazol-5-yl)methanone] | 
32 | 0.5 to 1 | O=C(c1cnc(-c2ccccn2)o1)N1CCc2[nH]cnc2[C@H]1c1nc2cc(F)ccc2o1 [Example 11, (S)-(4-(5-fluorobenzo[d]oxazol-2-yl)-6,7-dihydro-1H-imidazo[4,5-c]pyridin-5(4H)-yl)(2-(pyridin-2-yl)oxazol-5-yl)methanone] | 
